Results from US20170197935A1, “INHIBITORS OF DNA GYRASE FOR THE TREATMENT OF BACTERIAL INFECTIONS” (Vitas Pharma Research Private Limited, priority 2012, published 2017).
Converted amounts (≈) assume the structure as drawn. Like-named read-outs stand apart in the source and are kept apart here.

How the values were obtained:
Format in all cases: cell-based
E. coli (ATCC 25922) = assay: MIC by microbroth dilution, E. coli ATCC 25922; conditions: Escherichia coli
Procedure: (§1) Shown below are the microbiological activities of representative compounds of Formula I of the invention. The compounds were tested by the microbroth dilution method (National committee for Clinical Laboratory Standards, 2011, M07-08) and the Minimum Inhibitory Concentration (MIC) was determined.
(§2) Analysis of microbiological activity of compounds shown below are the microbiological activities of representative compounds of Formula II of the invention. The compounds were tested by the microbroth dilution method as per the reference in Example 1.

[1] = system: Streptococcus pneumoniae (ATCC 6301); assay: MIC by microbroth dilution, Streptococcus pneumoniae ATCC 6301; conditions: ATCC6301
Procedure: (§3) Shown below are the microbiological activities of representative compounds of Formula I of the invention. The compounds were tested by the microbroth dilution method (National committee for Clinical Laboratory Standards, 2011, […]-08) and the Minimum Inhibitory Concentration (MIC) was determined.

[2] = system: K. pneumoniae (ATCC 700603); assay: MIC by microbroth dilution, K. pneumoniae ATCC 700603; conditions: Klebsiella pneumoniae, ATCC700603, Formula I compounds
Procedure: as §1, §2

[3] = system: Staphylococcus aureus (ATCC 29213); assay: MIC by microbroth dilution, Staphylococcus aureus ATCC 29213; conditions: ATCC29213
Procedure: as §3

[4] = system: Enterococcus faecalis (ATCC 29212); assay: MIC by microbroth dilution, Enterococcus faecalis ATCC 29212; conditions: ATCC29212
Procedure: as §3

[5] = system: Moraxella catarrhalis (ATCC 8176); assay: MIC by microbroth dilution, Moraxella catarrhalis ATCC 8176; conditions: ATCC8176
Procedure: as §3

[6] = system: Methicillin resistant Staphylococcus aureus (ATCC 33591); assay: MIC by microbroth dilution, MRSA ATCC 33591
Procedure: as §1, §2

[7] = ATCC25922, Formula I compounds, read-out: MIC E. coli (ATCC 25922)
[8] = ATCC33591, Formula I compounds, read-out: MIC Methicillin resistant Staphylococcus aureus (ATCC 33591)
[9] = ATCC25922, Formula II compounds, read-out: Minimum Inhibitory Concentration (MIC) E. coli ATCC 25922
[10] = Formula II compounds, read-out: Minimum Inhibitory Concentration (MIC) MRSA ATCC 33591

MIC (E. coli (ATCC 25922); [7]) | MIC [1] | MIC [2] | MIC [3] | MIC [4] | MIC [5] | MIC [6, 8] | MIC (E. coli (ATCC 25922); [9]) | MIC [6, 10] | Compound
> 32 µg/mL | > 4 µg/mL | > 16 µg/mL | 2 µg/mL (≈ 4.59 µM) | 4 µg/mL (≈ 9.19 µM) | 2 µg/mL (≈ 4.59 µM) | 4 µg/mL (≈ 9.19 µM) |  |  | COc1ccc2ncc(C#N)c(CCN3CCC(NCc4ccc([N+](=O)[O-])o4)CC3)c2c1 [VT-03-00051]
8 µg/mL (≈ 17.3 µM) | 0.5 µg/mL (≈ 1.08 µM) | 32 µg/mL (≈ 69 µM) | 0.03 µg/mL (≈ 0.0647 µM) | 2 µg/mL (≈ 4.31 µM) | 1 µg/mL (≈ 2.16 µM) | 0.12 µg/mL (≈ 0.259 µM) |  |  | COc1ccc2ncc(C#N)c(CCN3CCC(NCc4ccc([N+](=O)[O-])c(F)c4)CC3)c2c1 [VT-03-00054]
4 µg/mL (≈ 8.78 µM) | 0.25 µg/mL (≈ 0.549 µM) | > 32 µg/mL | 0.25 µg/mL (≈ 0.549 µM) | 8 µg/mL (≈ 17.6 µM) | 1 µg/mL (≈ 2.2 µM) | 0.5 µg/mL (≈ 1.1 µM) |  |  | COc1ccc2ncc(=O)n(CCN3CCC(NCc4ccc(F)c([N+](=O)[O-])c4)CC3)c2c1 [VT-03-00056]
> 32 µg/mL | 2 µg/mL (≈ 4.33 µM) | > 32 µg/mL | 0.25 µg/mL (≈ 0.542 µM) | 8 µg/mL (≈ 17.3 µM) | 8 µg/mL (≈ 17.3 µM) | 1 µg/mL (≈ 2.17 µM) |  |  | COc1ccc2ncc(C#N)c(CCN3CCC(NCc4cc([N+](=O)[O-])ccc4O)CC3)c2c1 [VT-03-00059]
> 32 µg/mL |  |  | > 4 µg/mL |  | > 32 µg/mL | > 4 µg/mL |  |  | COc1ccc2ncc(C#N)c(CCN3CCC(NCc4cc(OC)c(O)c([N+](=O)[O-])c4)CC3)c2c1 [VT-03-00060]
16 µg/mL (≈ 35.4 µM) | 0.25 µg/mL (≈ 0.554 µM) | 32 µg/mL (≈ 70.9 µM) | 0.12 µg/mL (≈ 0.266 µM) |  | 2 µg/mL (≈ 4.43 µM) | 0.5 µg/mL (≈ 1.11 µM) |  |  | COc1ccc2ncc(=O)n(CCN3CCC(NCc4ccc([N+](=O)[O-])c(C)c4)CC3)c2c1 [VT-03-00067]
> 4 µg/mL |  |  | > 4 µg/mL |  |  | > 4 µg/mL |  |  | COc1ccc2ncc(C#N)c(CCN3CCC(NCc4cc([N+](=O)[O-])c(C)cc4C)CC3)c2c1 [VT-03-00072]
> 32 µg/mL |  |  | > 4 µg/mL |  |  |  |  |  | COc1ccc2ncc(C#N)c(CCN3CCC(NCc4ncc([N+](=O)[O-])[nH]4)CC3)c2c1 [VT-03-00078]
32 µg/mL (≈ 70.7 µM) | 2 µg/mL (≈ 4.42 µM) |  | 0.25 µg/mL (≈ 0.552 µM) | 4 µg/mL (≈ 8.84 µM) | > 4 µg/mL | 1 µg/mL (≈ 2.21 µM) |  |  | COc1ccc2ncc(C#N)c(CCN3CCC(NCc4csc([N+](=O)[O-])n4)CC3)c2c1 [VT-03-00080]
> 32 µg/mL |  |  |  |  |  | 1 µg/mL (≈ 2.24 µM) |  |  | COc1ccc2ncc(C#N)c(CCN3CCC(NCc4ccc([N+](=O)[O-])cn4)CC3)c2c1 [VT-03-00081]
4 µg/mL (≈ 7.96 µM) |  |  | 0.06 µg/mL (≈ 0.119 µM) |  |  | 0.12 µg/mL (≈ 0.239 µM) |  |  | COc1ccc2ncc(C#N)c(CCN3CCC(NCc4ccc(C)c([N+](=O)[O-])c4)(C(N)=O)CC3)c2c1 [VT-03-00083]
8 µg/mL (≈ 18 µM) | 0.25 µg/mL (≈ 0.561 µM) |  | 0.5 µg/mL (≈ 1.12 µM) | 2 µg/mL (≈ 4.49 µM) | 2 µg/mL (≈ 4.49 µM) | 0.5 µg/mL (≈ 1.12 µM) |  |  | COc1ccc2ncc(C#N)c(CCN3CC(CNCc4ccc(C)c([N+](=O)[O-])c4)C3)c2c1 [VT-03-00084]
 |  |  |  |  |  |  | 2 µg/mL (≈ 4.73 µM) | 0.125 µg/mL (≈ 0.296 µM) | CCc1ccc2ncc(=O)n(CCN3CCC(NCc4ccc(C)c(F)c4)CC3)c2c1 [VT-03-00112]
 |  |  |  |  |  |  | 2 µg/mL (≈ 4.3 µM) |  | Cc1ccc(CNC2CCN(CCn3c(=O)cnc4ccc(C(=O)O)cc43)CC2)cc1[N+](=O)[O-] [VT-03-00124]
 |  |  |  |  |  |  | 32 µg/mL (≈ 70.7 µM) | > 4 µg/mL | COc1ccc2ncc(=O)n(CCN3CCC(NCc4ccc(C)c([N+](=O)[O-])c4)CC3)c2n1 [VT-03-00125]
 |  |  |  |  |  |  | 8 µg/mL (≈ 17.1 µM) |  | COc1ccc2ncc(=O)n(CCN3CC[C@H](NCc4ccc(C)c([N+](=O)[O-])c4)[C@@H](O)C3)c2c1 [VT-03-00135]

Compound | MIC (E. coli (ATCC 25922); [7]) | MIC [1] | MIC [2] | MIC [3] | MIC [4] | MIC [5] | MIC [6, 8] | MIC (E. coli (ATCC 25922); [9]) | MIC [6, 10]
COc1ccc2ncc(C#N)c(CCN3[C@@H]4CC[C@H]3CC(NCc3ccc(C)c([N+](=O)[O-])c3)C4)c2c1 (stereo partly drawn) [VT-03-00069] | > 4 µg/mL |  |  | > 4 µg/mL |  |  | > 4 µg/mL |  | 
COc1ccc2ncc(C#N)c(CCN3[C@@H]4CC[C@H]3CC(NCc3cc5c(c([N+](=O)[O-])c3)OCO5)C4)c2c1 (stereo partly drawn) [VT-03-00070] | > 4 µg/mL |  |  | > 4 µg/mL |  |  | > 4 µg/mL |  | 
COc1ccc2ncc(C#N)c(CCN3[C@@H]4CC[C@H]3CC(NCc3ccc([N+](=O)[O-])s3)C4)c2c1 (stereo partly drawn) [VT-03-00074] | 32 µg/mL (≈ 67 µM) | 2 µg/mL (≈ 4.19 µM) |  | 1 µg/mL (≈ 2.09 µM) | 8 µg/mL (≈ 16.8 µM) | 2 µg/mL (≈ 4.19 µM) | 2 µg/mL (≈ 4.19 µM) |  | 
